# How the values were obtained:
# [1] = system: mouse grafted sarcoma S-180; assay: Activity against mouse grafted sarcoma S-180; type: in vivo, Kunming mice; conditions: for Average weight (g)-after administration / Tumor weight / Inhibition rate (%) / Average weight(g)-after administration: 6 doses; for Tumor weight: X ± SD, n = 10
# Outline: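 Male Kunming mice inoculated axillarily with S-180, 10 per group, given 10% compound solutions IV at 0.4, 0.2 or 0.1 ml/mouse from the day after inoculation, alternate days, 6 doses. Tumours excised the day after last dose; inhibition rate from mean tumour weight versus saline control; repeated three times.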
# [2] = target: T1, HIV-1 integrase (HIV-1 IN) (Human immunodeficiency virus type 1 group M subtype B, UniProt P04585); assay: Screening for the activity against HIV-1 integrase; type: biochemical; conditions: initial concentration 100 μg/ml
# T1 construct: a purified HIV-1 integrase was added into each well; purchased
# Outline: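 Purified HIV-1 integrase with plate-bound 30-nt donor oligonucleotide and biotinylated 20-nt target oligonucleotide; samples tested at four 5-fold serial dilutions. Strand-transfer product detected by ELISA with biotin-labeled alkaline phosphatase, read as OD450.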
# [3] = system: MCF-7 human mammary adenocarcinoma; assay: In vitro anti-tumor IC50 (MTT), MCF-7; type: cell-based; conditions: Homo sapiens, MCF7; Table 4; read-out: IC50 (ug/ml) against tumor cell lines, MCF
# [4] = system: mouse grafted uterine cervix cancer U14; assay: Activity against mouse grafted uterine cervix cancer U14; type: in vivo, Kunming mice; conditions: for Tumor weight: X ± SD, n = 10
# MDCK (dog kidney) cells = assay: Toxicity TC50 of the samples in MDCK cells (influenza screening); conditions: concentration of 50% toxicity
# [5] = S-180, first experiment, 10 mg/kg i.v.
# [6] = S-180, first experiment, 20 mg/kg i.v.
# [7] = S-180, first experiment, 40 mg/kg i.v.
# [8] = S-180, second experiment, 10 mg/kg i.v.
# [9] = S-180, second experiment, 20 mg/kg i.v.
# [10] = S-180, second experiment, 40 mg/kg i.v.
# [11] = U14, first experiment, 10 mg/kg
# [12] = U14, first experiment, 20 mg/kg
# [13] = U14, first experiment, 40 mg/kg
# [14] = U14, second experiment, 10 mg/kg
# [15] = U14, second experiment, 20 mg/kg
# [16] = U14, second experiment, 40 mg/kg
# [17] = U14, third experiment, 10 mg/kg
# [18] = U14, third experiment, 20 mg/kg
# [19] = U14, third experiment, 40 mg/kg
structure (smiles),measurement,setting,value
"C=C1CC2(OS(=O)(=O)[O-])OC3(CC2C(C)C)C(C)CCC13.[Na+] (stereo not shown) [Compound 21, Curcumol sodium sulfonate]",Average weight (g)-after administration,[1]; [5],22.6 g
same,Tumor weight,[1]; [5],2.6 ± 0.23 g
same,Average weight (g)-after administration,[1]; [6],22.5 g
same,Inhibition rate (%),[1]; [6],4%
same,Tumor weight,[1]; [6],2.4 ± 0.43 g
same,Average weight (g)-after administration,[1]; [7],23.1 g
same,Inhibition rate (%),[1]; [7],8%
same,Tumor weight,[1]; [7],2.3 ± 0.31 g
same,Average weight(g)-after administration,[1]; [8],22.6 g
same,Inhibition rate (%),[1]; [8],3.8%
same,Tumor weight,[1]; [8],2.5 ± 0.42 g
same,Average weight(g)-after administration,[1]; [9],22.2 g
same,Inhibition rate (%),[1]; [9],3.8%
same,Tumor weight,[1]; [9],2.5 ± 0.38 g
same,Average weight(g)-after administration,[1]; [10],23.1 g
same,Inhibition rate (%),[1]; [10],7.6%
same,Tumor weight,[1]; [10],2.4 ± 0.36 g
same,inhibitory effect against mouse sarcoma S-180 (in words),"[1]; three different concentrations (40, 20, 10 mg/kg), i.v.",little inhibitory effect
same,IC50,[2],— (indicates that the initial concentration of the sample had a inhibition rate of less than 50% against HIV-1 IN.)
same,IC50,[3],4.99 µg/mL
same,Average weight(g)-after administration,[4]; [11],22.1 g
same,Inhibition rate (%),[4]; [11],52.1%
same,Tumor weight,[4]; [11],1.68 ± 0.29 g
same,Average weight(g)-after administration,[4]; [12],21.0 g
same,Inhibition rate (%),[4]; [12],56.7%
same,Tumor weight,[4]; [12],1.52 ± 0.41 g
same,Average weight(g)-after administration,[4]; [13],21.1 g
same,Inhibition rate (%),[4]; [13],71.8%
same,Tumor weight,[4]; [13],0.99 ± 0.31 g
same,Average weight(g)-after administration,[4]; [14],22.5 g
same,Inhibition rate (%),[4]; [14],53.2%
same,Tumor weight,[4]; [14],1.59 ± 0.29 g
same,Average weight(g)-after administration,[4]; [15],21.1 g
same,Inhibition rate (%),[4]; [15],57.1%
same,Tumor weight,[4]; [15],1.46 ± 0.41 g
same,Average weight(g)-after administration,[4]; [16],21.0 g
same,Inhibition rate (%),[4]; [16],73.8%
same,Tumor weight,[4]; [16],0.89 ± 0.31 g
same,Average weight (g)-after administration,[4]; [17],22.0 g
same,Inhibition rate (%),[4]; [17],54.7%
same,Tumor weight,[4]; [17],1.64 ± 0.29 g
same,Average weight (g)-after administration,[4]; [18],21.0 g
same,Inhibition rate (%),[4]; [18],58.3%
same,Tumor weight,[4]; [18],1.51 ± 0.41 g
same,Average weight (g)-after administration,[4]; [19],20.1 g
same,Inhibition rate (%),[4]; [19],73.7%
same,Tumor weight,[4]; [19],0.95 ± 0.31 g
same,inhibitory effect against mouse grafted uterine cervix cancer U14 (in words),"[4]; all the three concentrations, i.v., female mice",good inhibitory effect
same,TC50,MDCK (dog kidney) cells,>1000 µg/mL
